Test results: patent US10745408B2, “Biologically active taxane analogs and methods of treatment by oral administration” (Tapestry Pharmaceuticals, Inc., priority 2007, dated 2020)
Entries after “also recorded” stand apart in the source; their conditions may differ.

How the values were obtained:
[1] = system: patients with advanced neoplasms; test: Phase 1 Study S-(1)-01 safety, tolerability and anti-neoplastic activity; format: in vivo, human
From the text: Both trials have enrolled patients with advanced solid tumors, non-Hodgkin's lymphoma or Hodgkin's lymphoma that have recurred or progressed following at least standard therapy; patients with malignancies for which there is no standard therapy; patients who are not candidates for standard therapy; or patients who have chosen not to pursue standard therapy. […] Study S-(1)-01 is currently being conducted in the United States. […] Study S-(1)-02 is currently being conducted in the United States and in Israel.
Treatment cohorts consisted of 3 pts and were expanded to 6 pts in the face of dose-limiting toxicity (DLT); pts could remain on study until the development of progressive disease or an intolerable adverse event. DLT was defined as Gr 4 heme toxicity lasting 7 days; febrile neutropenia, Gr 3 thrombocytopenia with bleeding, Gr 3 elevation of transaminases lasting 7 days or any other Gr 3/4 toxicity other than nausea or vomiting.

[2] = system: bovine microtubule protein; test: In vitro ED50 MT polymerization study (DAPI fluorescence tubulin assay); format: biochemical; conditions: tubulin polymerization, 37° C. 30 minutes, maximum assembly = 25 μM paclitaxel
Experimental: In Vitro ED50 MT Polymerization Study
In this tubulin binding assay, microtubule protein (MTP) is used as a substrate. The assay contains bovine tubulin plus microtubule associated proteins (MAP). MTP is polymerized into microtubules in the presence of DAPI (4′,6′-diamidino-2-phenylindole), a fluorescent compound. DAPI binds to tubulin; when microtubules are formed and there is an enhancement of fluorescence. The microtubule formation is measured as a function of time, using a fluorescence plate reader. […] The method used is based on the procedure published by Donna M. Barron, et al, “Fluorescence-based high-throughput assay for antimicrotuble drugs” Analytical Biochemistry, 315: 49-56, 2003, which is incorporated by reference in its entirety. The excitation wavelength, in that assay, was set at 370 nm and the emission wavelength was set at 450 nm for the DAPI experiments.
A Bio-Tek FL 600 microplate Fluorescence Reader was used to measure the relative level of fluorescence in the DAPI assay.
Assays were conducted in 96-well plates. Each well contained a total volume of 0.1 mL consisting of PEM buffer (0.1 M Pipes, 1 mM EGTA, 1 mM MgCl2, pH 6.9), 0.2 mg bovine microtubule protein, and 10 μg of DAPI. […] The final DMSO concentration was 4%. The plates were incubated at 37° C. for 30 minutes and read in a fluorescence plate reader using an excitation wavelength of 360 nm and an emission wavelength of 460 nm. Fluorescence values were corrected for the sample without compound.
Experiments were done twice in triplicate. Results were subsequently combined and fit to a non-linear regression program.

MESSA/Dox (MDR+) = test: MTS proliferation assay, uterine MESSA/Dox (MDR+); format: cell-based; conditions: Homo sapiens, MES-SA
Experimental: (§1) MTS Proliferation Assay (Promega)
(§2) Day 1: Cells were plated in appropriate growth medium at 5×10^3 per well in 100 ul in 96 well tissue culture plates, Falcon, one for each drug to be tested. Col 1 was blank; it contained no cells, just medium. The plates were incubated overnight at 37° C., 5% CO2 to allow attachment.
(§3) Day 2: Added 120 ul growth medium in wells of 96-well “dilution plates” (one for each drug) and let sit in 37° C. incubator for about 1 hr.
(§4) Thawed DMSO drug stocks (usually at 10 mM). Each drug was diluted 6 ul into a tube with 3 ml growth medium, to 20 μM.
(§5) Aspirated medium from col 12 of a dilution plate; added 200-300 ul of 20 uM drug to wells of col 12. Made serial dilution down this 96-well plate: for a […] dilution pattern, moved 60 ul from col 12 to col 11, mixed 4-5 times (using 8 place multi-pipettor), moved 60 ul to col 10, etc. stopping at col 3.
(§6) Moved 100 ul of medium+drug from dilution plate to a cell plate, i.e. col 1 from drug plate (blank=no cells) to col 1 of cell plate, etc. up to col 12. Col 2 contained cells with no drug. […]
(§7) Day 4 or 5: Terminated the assay 48 to 72 hrs after drug addition. […] When the color turned dark in control wells (col 2), and was still light in col 12, the absorbance at 490 nm was read on a plate reader; the results were used to calculate IC50.

[3] = S-(1) pharmacokinetics in mouse, plasma and brain levels after single IV dose; format: in vivo, CD-1 mice; conditions: single IV 20 mg/kg; for AUC(0-inf) / AUC(0-t) / Cmax / MRT: CD-1, mouse
Experimental: S-(1) Pharmacokinetic Data in Mouse Model:
The formulated drug was administered as a single IV bolus via tail vein injection.
Sample Collection timing: Terminal blood (plasma) and brain specimens were collected at 9 times post-dose, with 4 mice per sample time. Sample collection times: 5, 15 min., 2, 8, 24, 32, 48, 72 and 96 hr post-dose (4 mice per sample time).
Blood collection: A terminal blood sample was collected from each mouse via cardiac puncture. The whole blood was collected on wet ice, spun down immediately (at 4° C.), and plasma stored frozen at −20° C. until analysis. The anticoagulant used was K2EDTA. Brain Sample Collection: Whole brains were removed by dissection. Brains were collected on wet ice, weighed, and stored at −20° C.

DU145 = test: MTS proliferation assay, prostate DU145; format: cell-based; conditions: Homo sapiens, DU-145
Experimental: as §1, §2, §3, §4, §5, §6, §7

HT29 = test: MTS proliferation assay, colon HT29; format: cell-based; conditions: Homo sapiens, HT-29
Experimental: as §1, §2, §3, §4, §5, §6, §7

Structure (SMILES): C=C[C@H]1O[C@H]2C[C@H]3OC[C@@]3(OC(C)=O)[C@H]3[C@H](OC(=O)c4ccccc4)[C@]4(C(C)(C)O)CC(OC(=O)[C@H](O)C(CC(C)C)NC(=O)OC(C)(C)C)C(C)=C4[C@H](OC(C)=O)[C@H](O1)[C@]23C (stereo partly drawn) [S-(1)]
- Dose limiting toxicity ([1]; 185 mg/m^2, weekly x3, 28-day cycle): Grade 3 sensory neuropathy; also recorded: Grade 3 peripheral neuropathy
- Drug related adverse events ([1]; 7-185 mg/m^2 weekly x3): nausea, vomiting, diarrhea, fatigue, anorexia, rash, anemia and peripheral neuropathy
- anti-neoplastic activity ([1]; patient with pancreatic cancer): Anti-neoplastic activity was seen
- dose that can be safely administered ([1]; weekly×3, heavily pre-treated patients): up to 185 mg/m^2
- EC50 [2]: 1580 ± 460 nM
- IC50 (MESSA/Dox (MDR+)): 44.8 nM
- AUC(0-inf) ([3]; Brain): 88700 ng·h/mL
- AUC(0-t) ([3]; Brain): 65000 ng·h/mL
- Cmax ([3]; Brain): 3730 ng/mL
- MRT ([3]; Brain): 42.5 h
- AUC(0-inf) ([3]; Plasma): 17000 ng·h/mL
- AUC(0-t) ([3]; Plasma): 16900 ng·h/mL
- Cmax ([3]; Plasma): 1550 ng/mL
- MRT ([3]; Plasma): 17.6 h
- blood-brain barrier passage ([3]; mouse model): not impeded by the blood-brain barrier
- IC50 (DU145): 60 nM
- IC50 (HT29): 0.006 nM
